Source: PubChem BioAssay AID330 (DTP/NCI, 2004)
“And” between values parts separate entries of the source, which are not always exact repeats. Equal entries are not always repeated. Inconclusive results and toxic doses are left out. How the source made its calls: active means survival T/C of 150% or more; inactive means T/C below 125% in these data.

System: P388 leukemia ip, CD2F1 mice, survival T/C
Test: NCI In Vivo Anticancer Drug Screen. Data for tumor model P388 Leukemia (intraperitoneal) in CD2F1 (CDF1) mice
Details: endpoint: median survival time, higher = longer survival
Outline: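 Mice carrying the transplanted tumor received test compound or vehicle. Survival was recorded in each group, and the value is the treated-group measurement divided by that of the vehicle-treated control group.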

[1] = dose: 50.0 mg/kg/injection, schedule: Q01DX009 (ip), vehicle: Klucel (hydroxypropylcellulose) (HPC)
[2] = dose: 100.0 mg/kg/injection, schedule: Q01DX009 (ip), vehicle: Klucel (hydroxypropylcellulose) (HPC)
[3] = dose: 200.0 mg/kg/injection, schedule: Q01DX009 (ip), vehicle: Klucel (hydroxypropylcellulose) (HPC)
[4] = dose: 400.0 mg/kg/injection, schedule: Q01DX009 (ip), vehicle: Klucel (hydroxypropylcellulose) (HPC)
[5] = dose: 25.0 mg/kg/injection, schedule: Q01DX009 (ip), vehicle: saline with Tween-80
[6] = dose: 50.0 mg/kg/injection, schedule: Q01DX009 (ip), vehicle: saline with Tween-80
[7] = dose: 100.0 mg/kg/injection, schedule: Q01DX009 (ip), vehicle: saline with Tween-80
[8] = dose: 120.0 mg/kg/injection, schedule: Q01DX005 (ip), vehicle: saline with Tween-80
[9] = dose: 240.0 mg/kg/injection, schedule: Q01DX005 (ip), vehicle: saline with Tween-80
[10] = dose: 200.0 mg/kg/injection, schedule: Q01DX009 (ip), vehicle: saline with Tween-80

Measured: T/C

O=C1N/C(=N\O)C(F)C(NO)N1 (stereo unspecified)
inactive: dose: 11.25 mg/kg/injection, schedule: Q04DX002 (ip), vehicle: distilled water + Tween-80 94 % of control | dose: 22.5 mg/kg/injection, schedule: Q04DX002 (ip), vehicle: distilled water + Tween-80 103 % of control | dose: 45.0 mg/kg/injection, schedule: Q04DX002 (ip), vehicle: distilled water + Tween-80 99 % of control | dose: 90.0 mg/kg/injection, schedule: Q04DX002 (ip), vehicle: distilled water + Tween-80 103 % of control | dose: 180.0 mg/kg/injection, schedule: Q04DX002 (ip), vehicle: distilled water + Tween-80 93 % of control | dose: 360.0 mg/kg/injection, schedule: Q04DX002 (ip), vehicle: distilled water + Tween-80 93 % of control

N[C@@H](CSSc1ccccc1C(=O)O)C(=O)O
inactive: dose: 100.0 mg/kg/injection, schedule: Q04DX002 (ip), vehicle: Klucel (hydroxypropylcellulose) (HPC) 103 % of control | dose: 200.0 mg/kg/injection, schedule: Q04DX002 (ip), vehicle: Klucel (hydroxypropylcellulose) (HPC) 107 % of control | dose: 400.0 mg/kg/injection, schedule: Q04DX002 (ip), vehicle: Klucel (hydroxypropylcellulose) (HPC) 105 % of control

COc1cc2c(c(O)c1O)-c1ccc(OC)c(=O)cc1C(NC(C)=O)CC2 (stereo unspecified)
inactive: dose: 1.25 mg/kg/injection, schedule: Q01DX009 (ip), vehicle: water 97 % of control | dose: 2.5 mg/kg/injection, schedule: Q01DX009 (ip), vehicle: water 97 % of control | dose: 5.0 mg/kg/injection, schedule: Q01DX009 (ip), vehicle: water 100 % of control | dose: 10.0 mg/kg/injection, schedule: Q01DX009 (ip), vehicle: water 100 % of control | dose: 20.0 mg/kg/injection, schedule: Q01DX009 (ip), vehicle: water 97 % of control | dose: 40.0 mg/kg/injection, schedule: Q01DX009 (ip), vehicle: distilled water + Tween-80 108 % of control | dose: 80.0 mg/kg/injection, schedule: Q01DX009 (ip), vehicle: distilled water + Tween-80 122 % of control

CCCCNC1=C(Cl)C(=O)c2ccccc2C1=O
inactive: [1] 92 % of control | [2] 92 % of control | [3] 91 % of control | [4] 105 % of control

CCOC(=O)N(C)C(=O)CN(C=O)c1ncc([N+](=O)[O-])s1
inactive: dose: 100.0 mg/kg/injection, schedule: Q01DX001 (ip), vehicle: saline 101 % of control | dose: 200.0 mg/kg/injection, schedule: Q01DX001 (ip), vehicle: saline 101 % of control | dose: 400.0 mg/kg/injection, schedule: Q01DX001 (ip), vehicle: saline 100 % of control

C[n+]1ccccc1/C=C/c1cccc([N+](=O)[O-])c1
inactive: dose: 5.0 mg/kg/injection, schedule: Q01DX009 (ip), vehicle: saline with Tween-80 100 % of control | dose: 10.0 mg/kg/injection, schedule: Q01DX009 (ip), vehicle: saline with Tween-80 109 % of control | dose: 20.0 mg/kg/injection, schedule: Q01DX009 (ip), vehicle: saline with Tween-80 100 % of control

Cc1c(N)n[nH]c1-c1ccccc1
inactive: dose: 50.0 mg/kg/injection, schedule: Q01DX001 (ip), vehicle: Klucel (hydroxypropylcellulose) (HPC) 100 % of control | dose: 100.0 mg/kg/injection, schedule: Q01DX001 (ip), vehicle: Klucel (hydroxypropylcellulose) (HPC) 99 % of control | dose: 200.0 mg/kg/injection, schedule: Q01DX001 (ip), vehicle: Klucel (hydroxypropylcellulose) (HPC) 106 % of control

CC(C)(C)N=O
inactive: [5] 104 % of control | [6] 103 % of control | dose: 100.0 mg/kg/injection, schedule: Q01DX001 (ip), vehicle: saline with Tween-80 100 % of control and 106 % of control | [7] 111 % of control | dose: 200.0 mg/kg/injection, schedule: Q01DX001 (ip), vehicle: saline with Tween-80 100 % of control and 106 % of control and 109 % of control | dose: 400.0 mg/kg/injection, schedule: Q01DX001 (ip), vehicle: saline with Tween-80 105 % of control and 119 % of control | dose: 800.0 mg/kg/injection, schedule: Q01DX001 (ip), vehicle: saline with Tween-80 89 % of control

CCn1c2ccccc2c2c3c(NCCCN(C)C)cc(C)nc3ccc21
inactive: dose: 5.5 mg/kg/injection, schedule: Q01DX009 (ip), vehicle: suspension in saline 93 % of control | dose: 11.0 mg/kg/injection, schedule: Q01DX009 (ip), vehicle: suspension in saline 97 % of control | dose: 22.0 mg/kg/injection, schedule: Q01DX009 (ip), vehicle: suspension in saline 97 % of control

c1cc2c3c(cccc3c1)-c1nc3c(ccc4ccccc43)nc1-2
inactive: [1] 107 % of control | [2] 101 % of control | [3] 93 % of control | [4] 107 % of control

CC(C)(C)C(=O)CC(=O)C(F)(F)C(F)(F)C(F)(F)F.CC(C)(C)C(=O)CC(=O)C(F)(F)C(F)(F)C(F)(F)F.CC(C)(C)C(=O)CC(=O)C(F)(F)C(F)(F)C(F)(F)F.[Pr]
inactive: [8] 116 % of control | [9] 113 % of control

CC(=O)OC(CC=C(C)C)C1=CC(=O)c2c(O)ccc(O)c2C1=O (stereo unspecified)
inactive: dose: 6.25 mg/kg/injection, schedule: Q01DX005 (ip), vehicle: saline with Tween-80 109 % of control | dose: 12.5 mg/kg/injection, schedule: Q01DX005 (ip), vehicle: saline with Tween-80 109 % of control

CCOc1ccc2ccc3cccnc3c2n1
inactive: dose: 60.0 mg/kg/injection, schedule: Q01DX005 (ip), vehicle: saline with Tween-80 96 % of control | [8] 94 % of control | [9] 99 % of control

C[N+](C)(CCCCCC[N+](C)(C)C1c2ccccc2-c2ccccc21)C1c2ccccc2-c2ccccc21
inactive: dose: 0.13 mg/kg/injection, schedule: Q01DX009 (ip), vehicle: saline 105 % of control | dose: 0.25 mg/kg/injection, schedule: Q01DX009 (ip), vehicle: saline 105 % of control | dose: 0.5 mg/kg/injection, schedule: Q01DX009 (ip), vehicle: saline 102 % of control | dose: 1.0 mg/kg/injection, schedule: Q01DX009 (ip), vehicle: saline 101 % of control

O=[N+]([O-])c1ccc(SC2=NCCN2Cc2ccccc2)c(Cl)c1
inactive: [6] 88 % of control | [7] 101 % of control | [10] 94 % of control

COC(=O)N/N=C(/CC1(O)C(=O)Nc2ccccc21)c1ccc(Cl)cc1Cl (stereo unspecified)
inactive: dose: 50.0 mg/kg/injection, schedule: Q01DX005 (ip), vehicle: saline with Tween-80 99 % of control | dose: 100.0 mg/kg/injection, schedule: Q01DX005 (ip), vehicle: saline with Tween-80 93 % of control | dose: 200.0 mg/kg/injection, schedule: Q01DX005 (ip), vehicle: saline with Tween-80 92 % of control

COc1ccc(C2=C(Cl)C(=O)N(c3ccccc3OC)C(=O)C2(Cl)Cl)cc1
inactive: dose: 100.0 mg/kg/injection, schedule: Q04DX003 (ip), vehicle: Klucel (hydroxypropylcellulose) (HPC) 107 % of control | dose: 200.0 mg/kg/injection, schedule: Q04DX003 (ip), vehicle: Klucel (hydroxypropylcellulose) (HPC) 103 % of control | dose: 400.0 mg/kg/injection, schedule: Q04DX003 (ip), vehicle: Klucel (hydroxypropylcellulose) (HPC) 98 % of control

COc1ccc(C2=C(c3ccccc3)C(C)(C)Oc3ccc4ccccc4c32)cc1
inactive: dose: 50.0 mg/kg/injection, schedule: Q01DX005 (ip), vehicle: Klucel (hydroxypropylcellulose) (HPC) 95 % of control | dose: 100.0 mg/kg/injection, schedule: Q01DX005 (ip), vehicle: Klucel (hydroxypropylcellulose) (HPC) 95 % of control | dose: 200.0 mg/kg/injection, schedule: Q01DX005 (ip), vehicle: Klucel (hydroxypropylcellulose) (HPC) 104 % of control

CC1(C)CC(C)(OC(=O)c2ccc(Cl)cc2)N=N1 (stereo unspecified)
inactive: dose: 12.5 mg/kg/injection, schedule: Q01DX009 (ip), vehicle: saline with Tween-80 104 % of control | [5] 103 % of control | [6] 99 % of control | [7] 99 % of control | [10] 98 % of control
